Experimental data from patent US8217085B2 (priority 2009, dated 2012).
Values joined by “and” are separate entries in the source; they are usually repeats but may differ in a detail not shown here. Identical values can stand only once. Like-named read-outs stand apart in the source and are kept apart here.

What was measured:
[1] = test system: ATCC strain 43300 Staphylococcus aureus
Procedure: Additional antibiotic was added every 24 hours.
USP<51> Antimicrobial Effectiveness protocol was used as the template experimental paradigm. […] All concentrations were plated out to the 10^−7 dilutionsto ascertain cfu/ml. […] Additional antibiotic was added at the initial concentration every 24 hours.
ATCC strain 43300 Staphylococcus aureus was streaked out for isolations. An isolated colony was chosen, streaked again and incubated. Isolate was chosen and then diluted to a McFarland standard of one. The estimated value was then taken to inoculate tubes containing growth media and 12, 30 or 60 μg/ml oxacillin with approximately 10^5 cfu/ml. These tubes were incubated and plated for counting cfu.
Material was calculated on a 10 ml volume. Sterile oxacillin was added to each experimental condition to a final concentration of 12, 30 or 60 μg/ml antibiotic.
All tubes were then inoculated with a dilution of the selected ATCC strain 43300 Staphylococcus aureus clone giving a final level of colony forming units of 3.3×10^5/ml (log=5.52). The tubes were incubated at 25° C. and mixed periodically. Antibiotic was re-inoculated every 24 hours at the initial concentration to maintain pressure on the organism. Plating was done at 24, 48, 72, and 120 hours. Each condition was plated by diluting 1 ml of growth material into 9 ml of MLB diluent broth. […] This mixture was serial diluted down to 10^−7 with 1 ml placed in triplicate in a sterile petri dish at each dilution point. 20 mls of TSA was added to each dilution, swirled and allowed to solidify. All dilutions were placed in a 35° C. incubator for 24 to 72 hours. Bacterial colonies on each plate were counted and the average taken then changed into log format. Any cfu/ml observed greater than 3.3×10^5 (log=5.5) were recorded as >3.3×10^5.

[2] = test system: ATCC strain 43300 Staphylococcus aureus; assay type: cell-based
From the text: (§1) No colonies were observed, indicating total kill.
as §1

[3] = 11% MSM, 60 μg/ml oxacillin, 24 hours
[4] = 12% MSM, 12 μg/ml oxacillin, 24 hours
[5] = 12% MSM, 12 μg/ml oxacillin, 48 hours
[6] = 12% MSM, 30 μg/ml oxacillin, 24 hours
[7] = 12% MSM, 60 μg/ml oxacillin, 24 hours
[8] = 13% MSM, 12 μg/ml oxacillin, 24 hours
[9] = 13% MSM, 12 μg/ml oxacillin, 48 hours
[10] = 13% MSM, 30 μg/ml oxacillin, 24 hours
[11] = 13% MSM, 60 μg/ml oxacillin, 24 hours
[12] = 14% MSM, 12 μg/ml oxacillin, 24 hours
[13] = 14% MSM, 12 μg/ml oxacillin, 48 hours
[14] = 14% MSM, 12 μg/ml oxacillin, 72 hours
[15] = 14% MSM, 30 μg/ml oxacillin, 24 hours
[16] = 14% MSM, 60 μg/ml oxacillin, 24 hours
[17] = 15% MSM, 12 μg/ml oxacillin, 24 hours
[18] = 15% MSM, 12 μg/ml oxacillin, 48 hours
[19] = 15% MSM, 30 μg/ml oxacillin, 24 hours
[20] = 15% MSM, 60 μg/ml oxacillin, 24 hours
[21] = 16% MSM, 12 μg/ml oxacillin, 24 hours
[22] = 16% MSM, 12 μg/ml oxacillin, 48 hours
[23] = 16% MSM, 30 μg/ml oxacillin, 24 hours
[24] = 16% MSM, 60 μg/ml oxacillin, 24 hours

SMILES: CS(C)(=O)=O [MSM, methylsulfonylmethane]
- survival ([1]; 11% MSM, 30 μg/ml oxacillin, 24 hours): 3.9 × 10^3 cfu/ml and 3.7 × 10^3 cfu/ml
- Average Log ([1]; 11% MSM, 30 μg/ml oxacillin, 48 hours): 2.4 Log
- Average Log ([1]; 11% MSM, 30 μg/ml oxacillin, 72 hours): 3.2 Log
- Average Log [1, 3]: 2.83 Log
- survival [1, 3]: 6.7 × 10^2 cfu/ml and 6.9 × 10^2 cfu/ml
- Average Log ([1]; 11% MSM, 60 μg/ml oxacillin, 48 hours): 2.1 Log
- Average Log [1, 4]: 3.85 Log
- survival [1, 4]: 7.0 × 10^3 cfu/ml and 7.3 × 10^3 cfu/ml
- Average Log [1, 5]: 2.8 Log
- survival [1, 5]: 3.6 × 10^2 cfu/ml and 4.0 × 10^2 cfu/ml and 4.2 × 10^2 cfu/ml
- Average Log ([1]; 12% MSM, 12 μg/ml oxacillin, 72 hours): 3.1 Log
- Average Log [1, 6]: 3.59 Log
- survival [1, 6]: 3.9 × 10^3 cfu/ml
- Average Log ([1]; 12% MSM, 30 μg/ml oxacillin, 48 hours): 2.6 Log
- Average Log ([1]; 12% MSM, 30 μg/ml oxacillin, 72 hours): 2.6 Log
- Average Log [1, 7]: 2.86 Log
- survival [1, 7]: 7.3 × 10^2 cfu/ml and 7.1 × 10^2 cfu/ml and 7.5 × 10^2 cfu/ml
- Average Log ([1]; 12% MSM, 60 μg/ml oxacillin, 48 hours): 2.0 Log
- Average Log ([1]; 12% MSM, 60 μg/ml oxacillin, 72 hours): 2.4 Log
- log reduction in the number of cfu/ml ([1]; 12%-16% MSM, 12 μg/ml oxacillin, 72 hours): 1 log
- Average Log [1, 8]: 3.95 Log
- survival [1, 8]: 9.0 × 10^3 cfu/ml and 8.7 × 10^3 cfu/ml and 9.2 × 10^3 cfu/ml
- Average Log [1, 9]: 2.8 Log
- survival [1, 9]: 6.8 × 10^2 cfu/ml and 5.8 × 10^2 cfu/ml
- Average Log ([1]; 13% MSM, 12 μg/ml oxacillin, 72 hours): 2.7 Log
- Average Log [1, 10]: 3.62 Log
- survival [1, 10]: 4.4 × 10^3 cfu/ml and 4.1 × 10^3 cfu/ml and 4.2 × 10^3 cfu/ml
- Average Log ([1]; 13% MSM, 30 μg/ml oxacillin, 48 hours): 2.5 Log
- Average Log ([1]; 13% MSM, 30 μg/ml oxacillin, 72 hours): 1.8 Log
- Average Log [1, 11]: 2.80 Log
- survival [1, 11]: 6.3 × 10^2 cfu/ml and 6.0 × 10^2 cfu/ml
- Average Log ([1]; 13% MSM, 60 μg/ml oxacillin, 48 hours): 1.7 Log
- Average Log ([1]; 13% MSM, 60 μg/ml oxacillin, 72 hours): 1 Log
- Average Log [1, 12]: 4.00 Log
- survival [1, 12]: 1.00 × 10^4 cfu/ml and 1.02 × 10^4 cfu/ml and 1.01 × 10^4 cfu/ml
- Average Log [1, 13]: 1.0 Log
- log reduction in the number of cfu/ml [1, 13]: 4.5 log
- survival [1, 13]: 1.0 × 10^1 cfu/ml and 1.2 × 10^1 cfu/ml and 1.1 × 10^1 cfu/ml
- Average Log [1, 14]: 2.0 Log
- log reduction in the number of cfu/ml [1, 14]: 4.5 log
- Average Log [1, 15]: 3.78 Log
- survival [1, 15]: 6.1 × 10^3 cfu/ml and 6.0 × 10^3 cfu/ml
- Average Log ([1]; 14% MSM, 30 μg/ml oxacillin, 48 hours): 2.5 Log
- Average Log ([1]; 14% MSM, 30 μg/ml oxacillin, 72 hours): 2.2 Log
- Average Log [1, 16]: 2.03 Log
- log reduction in the number of cfu/ml [1, 16]: 3.5 log
- survival [1, 16]: 1.8 × 10^2 cfu/ml and 1.7 × 10^2 cfu/ml
- Average Log ([1]; 14% MSM, 60 μg/ml oxacillin, 48 hours): 2.2 Log
- Average Log ([1]; 14% MSM, 60 μg/ml oxacillin, 72 hours): 1.5 Log
- Average Log [1, 17]: 4.11 Log
- survival [1, 17]: 1.35 × 10^4 cfu/ml and 1.30 × 10^4 cfu/ml and 1.29 × 10^4 cfu/ml
- Average Log [1, 18]: 3.7 Log
- survival [1, 18]: 5.0 × 10^3 cfu/ml and 4.5 × 10^3 cfu/ml and 4.6 × 10^3 cfu/ml
- Average Log ([1]; 15% MSM, 12 μg/ml oxacillin, 72 hours): 2.3 Log
- Average Log [1, 19]: 3.94 Log
- survival [1, 19]: 8.7 × 10^3 cfu/ml and 8.9 × 10^3 cfu/ml and 8.8 × 10^3 cfu/ml
- Average Log ([1]; 15% MSM, 30 μg/ml oxacillin, 48 hours): 2.8 Log
- Average Log ([1]; 15% MSM, 30 μg/ml oxacillin, 72 hours): 2.4 Log
- Average Log [1, 20]: 3.81 Log
- survival [1, 20]: 6.6 × 10^3 cfu/ml and 6.2 × 10^3 cfu/ml and 6.4 × 10^3 cfu/ml
- Average Log ([1]; 15% MSM, 60 μg/ml oxacillin, 48 hours): 2.1 Log
- Average Log [1, 21]: 3.88 Log
- survival [1, 21]: 7.6 × 10^3 cfu/ml and 7.4 × 10^3 cfu/ml
- Average Log [1, 22]: 3.7 Log
- survival [1, 22]: 4.2 × 10^3 cfu/ml and 5.0 × 10^3 cfu/ml and 4.3 × 10^3 cfu/ml
- Average Log ([1]; 16% MSM, 12 μg/ml oxacillin, 72 hours): 2.1 Log
- Average Log [1, 23]: 3.91 Log
- survival [1, 23]: 8.3 × 10^3 cfu/ml and 8.0 × 10^3 cfu/ml
- Average Log ([1]; 16% MSM, 30 μg/ml oxacillin, 48 hours): 2.6 Log
- Average Log ([1]; 16% MSM, 30 μg/ml oxacillin, 72 hours): 1.9 Log
- Average Log [1, 24]: 3.83 Log
- survival [1, 24]: 6.9 × 10^3 cfu/ml
- Average Log ([1]; 16% MSM, 60 μg/ml oxacillin, 48 hours): 1.9 Log
- Average Log ([1]; 16% MSM, 60 μg/ml oxacillin, 72 hours): 1.8 Log
- recovery of MRSA after enrichment ([2]; 11% MSM, 60 μg/ml oxacillin, 96 hours): total kill
- recovery of MRSA after enrichment ([2]; 13% MSM, 60 μg/ml oxacillin, 120 hours): total kill
- recovery of MRSA after enrichment ([2]; 14% MSM, 60 μg/ml oxacillin, 96 hours): total kill
- recovery of MRSA after enrichment ([2]; 15% MSM, 30 μg/ml oxacillin, 120 hours): total kill
- recovery of MRSA after enrichment ([2]; 15% MSM, 60 μg/ml oxacillin, 72 hours): total kill
- recovery of MRSA after enrichment ([2]; 16% MSM, 60 μg/ml oxacillin, 120 hours): total kill
